target: T1, human ACC1 (acetyl-coenzyme A carboxylase alpha transcript variant 1) (Homo sapiens, UniProt Q13085); assay: Human ACC1 enzyme assay, Assay B1 (ADP-Glo); type: biochemical; settings: not given
T1 construct: FLAG (C); made in house; host or cells: baculovirus-infected insect cells (Hi5)

SMILES	IC50 [nM]
Cc1ccc(-c2ccc(C)c(C3=C(O)C4(CCCOC4)NC3=O)c2)cc1 (stereo not drawn) [1-14, 3-(4,4′-dimethylbiphenyl-3-yl)-4-hydroxy-7-oxa-1-azaspiro[4.5]dec-3-en-2-one]	3070
Cc1ccc(-c2ccc(Cl)cc2)cc1C1=C(O)CN(C)C1=O [1-16, 3-(4′-chloro-4-methylbiphenyl-3-yl)-4-hydroxy-1-methyl-1,5-dihydro-2H-pyrrol-2-one]	241
Cc1ccc(-c2cc(F)c(F)c(F)c2)cc1C1=C(O)C2(CCOCC2)NC1=O [1-36, 4-hydroxy-3-(3′,4′,5′-trifluoro-4-methylbiphenyl-3-yl)-8-oxa-1-azaspiro[4.5]dec-3-en-2-one]	1500
CO[C@H]1CC[C@]2(CC1)NC(=O)C(c1cc(-c3ccc(F)cc3)ccc1Cl)=C2O [1-44, (5s,8s)-3-(4-chloro-4′-fluorobiphenyl-3-yl)-4-hydroxy-8-methoxy-1-azaspiro[4.5]dec-3-en-2-one]	1700
CC1OC2(CCC3(CC2)NC(=O)C(c2cc(-c4ccc(Cl)cc4)ccc2Cl)=C3O)OC1C (stereo not drawn) [1-71, 11-(4,4′-dichlorobiphenyl-3-yl)-12-hydroxy-2,3-dimethyl-1,4-dioxa-9-azadispiro[4.2.4.2]tetradec-11-en-10-one]	912
CCOC1CCC2(CC1)NC(=O)C(c1cc(-c3cccc(Cl)c3)ccc1C)=C2O (stereo not drawn) [1-79, 3-(3′-chloro-4-methylbiphenyl-3-yl)-8-ethoxy-4-hydroxy-1-azaspiro[4.5]dec-3-en-2-one]	2320
COC1CCC2(CC1)NC(=O)C(c1cc(-c3cc(F)ccc3F)ccc1C)=C2O (stereo not drawn) [1-80, 3-(2′,5′-difluoro-4-methylbiphenyl-3-yl)-4-hydroxy-8-methoxy-1-azaspiro[4.5]dec-3-en-2-one]	2180
Cc1ccc(-c2ccc(Cl)cc2)cc1C1=C(O)C2(CCCOC2)OC1=O (stereo not drawn) [2-9, 3-(4′-chloro-4-methylbiphenyl-3-yl)-4-hydroxy-1,7-dioxaspiro[4.5]dec-3-en-2-one]	2220
COC1CCCC2(C1)OC(=O)C(c1cc(-c3ccc(Cl)cc3)ccc1Cl)=C2O (stereo not drawn) [2-13, 3-(4,4′-dichlorobiphenyl-3-yl)-4-hydroxy-7-methoxy-1-oxaspiro[4.5]dec-3-en-2-one]	1020
Cc1ccc(-c2ccc(F)cc2)cc1C1=C(O)C2(CCCCC2)OC1=O [2-21, 3-(4′-fluoro-4-methylbiphenyl-3-yl)-4-hydroxy-1-oxaspiro[4.5]dec-3-en-2-one]	874
Cc1ccc(-c2ccc(Cl)cc2)cc1C1=C(O)C2(CCOCC2)OC1=O [2-37, 3-(4′-chloro-4-methylbiphenyl-3-yl)-4-hydroxy-1,8-dioxaspiro[4.5]dec-3-en-2-one]	1050
Cc1ccc(-c2ccc(Cl)cc2)cc1C1=C(O)C(C)(C2CCCCC2)OC1=O (stereo not drawn) [2-40, 3-(4′-chloro-4-methylbiphenyl-3-yl)-5-cyclohexyl-4-hydroxy-5-methylfuran-2(5H)-one]	1510
Cc1ccc(-c2ccc(Cl)cc2)cc1C1=C(O)CC(C)CC1=O (stereo not drawn) [7-1, 2-(4′-chloro-4-methylbiphenyl-3-yl)-3-hydroxy-5-methylcyclohex-2-en-1-one]	932
Cc1ccc(-c2ccc(F)cc2)c(C)c1C1C(=O)N2CCCCN2C1=O [8-1, 2-(4′-fluoro-2,4-dimethylbiphenyl-3-yl)tetrahydro-1H-pyrazolo[1,2-a]pyridazine-1,3(2H)-dione]	3560
Cc1ccc(-c2ccc(F)cc2)c(C)c1C1C(=O)N2CCOCCN2C1=O [8-7, 8-(4′-fluoro-2,4-dimethylbiphenyl-3-yl)tetrahydro-7H-pyrazolo[1,2-d][1,4,5]oxadiazepine-7,9(8H)-dione]	6210
O=C1C(c2cc(-c3ccc(Cl)cc3Cl)ccc2Cl)C(=O)N2CCOCCN12 [8-9, 8-(2′,4,4′-trichlorobiphenyl-3-yl)tetrahydro-7H-pyrazolo[1,2-d][1,4,5]oxadiazepine-7,9(8H)-dione]	682
O=C1C(c2cc(-c3ccc(Cl)c(Cl)c3)ccc2Cl)C(=O)N2CCOCCN12 [8-10, 8-(3′,4,4′-trichlorobiphenyl-3-yl)tetrahydro-7H-pyrazolo[1,2-d][1,4,5]oxadiazepine-7,9(8H)-dione]	2350
O=C1C(c2cc(-c3ccc(F)cc3F)ccc2Cl)C(=O)N2CCOCCN12 [8-11, 8-(4-chloro-2′,4′-difluorobiphenyl-3-yl)tetrahydro-7H-pyrazolo[1,2-d][1,4,5]oxadiazepine-7,9(8H)-dione]	1360
Cc1ccc(-c2ccc(Cl)cc2)cc1C1C(=O)N2C3CCC(C3)N2C1=O (stereo not drawn) [8-16, 2-(4′-chloro-4-methylbiphenyl-3-yl)tetrahydro-1H-5,8-methanopyrazolo[1,2-a]pyridazine-1,3(2H)-dione]	593

same assay, conditions: Assay B1, ADP-Glo; read-out: ACC 1 (=B1) IC50

SMILES	IC50 [nM]
COC1CCC2(CC1)OC(=O)C(c1cc(-c3ccccc3Cl)ccc1C)=C2O (stereo not drawn) [2-7, 3-(2′-chloro-4-methylbiphenyl-3-yl)-4-hydroxy-8-methoxy-1-oxaspiro[4.5]dec-3-en-2-one]	2710
Cc1ccc(-c2ccc(Cl)cc2)cc1C1=C(O)C2(CC2)OC1=O [2-8, 6-(4′-chloro-4-methylbiphenyl-3-yl)-7-hydroxy-4-oxaspiro[2.4]hept-6-en-5-one]	1990
Cc1ccc(-c2ccc(F)c(F)c2)cc1C1=C(O)C2(CCCC2)OC1=O [2-22, 3-(3′,4′-difluoro-4-methylbiphenyl-3-yl)-4-hydroxy-1-oxaspiro[4.4]non-3-en-2-one]	2230
Cc1ccc(-c2ccc(F)c(Cl)c2)cc1C1=C(O)C2(CCCC2)OC1=O [2-23, 3-(3′-chloro-4′-fluoro-4-methylbiphenyl-3-yl)-4-hydroxy-1-oxaspiro[4.4]non-3-en-2-one]	2090
O=C1OC2(CCCC2)C(O)=C1c1cc(-c2cc(F)c(F)c(F)c2)ccc1Cl [2-24, 3-(4-chloro-3′,4′,5′-trifluorobiphenyl-3-yl)-4-hydroxy-1-oxaspiro[4.4]non-3-en-2-one]	2090
O=C1OC2(CCCCC2)C(O)=C1c1cc(-c2ccc(F)c(F)c2)ccc1Cl [2-25, 3-(4-chloro-3′,4′-difluorobiphenyl-3-yl)-4-hydroxy-1-oxaspiro[4.5]dec-3-en-2-one]	1200
Cc1ccc(-c2ccc(Cl)cc2)cc1C1=C(O)C(C(C)(C)C)OC1=O (stereo not drawn) [2-35, 5-tert-butyl-3-(4′-chloro-4-methylbiphenyl-3-yl)-4-hydroxyfuran-2(5H)-one]	1190

same assay, conditions: Assay B1; read-out: ACC 1 (=B1) IC50

SMILES	IC50 [nM]
Cc1ccc(-c2ccc(C)c(C3=C(O)C4(CCOCC4)NC3=O)c2)cc1 [1-15, 3-(4,4′-dimethylbiphenyl-3-yl)-4-hydroxy-8-oxa-1-azaspiro[4.5]dec-3-en-2-one]	522
Cc1ccc(-c2ccc(Cl)cc2)cc1C1=C(O)CN(CC(C)C)C1=O [1-27, 3-(4′-chloro-4-methylbiphenyl-3-yl)-4-hydroxy-1-(2-methylpropyl)-1,5-dihydro-2H-pyrrol-2-one]	1940
Cc1ccc(-c2ccc(F)c(F)c2)cc1C1=C(O)C2(CCOCC2)NC1=O [1-37, 3-(3′,4′-difluoro-4-methylbiphenyl-3-yl)-4-hydroxy-8-oxa-1-azaspiro[4.5]dec-3-en-2-one]	850
O=C1NC2(CCOCC2)C(O)=C1c1cc(-c2cc(F)c(F)c(F)c2)ccc1Cl [1-38, 3-(4-chloro-3′,4′,5′-trifluorobiphenyl-3-yl)-4-hydroxy-8-oxa-1-azaspiro[4.5]dec-3-en-2-one]	747
Cc1ccc(-c2ccc(Cl)c(C3=C(O)C4(CCOCC4)NC3=O)c2)cc1F [1-39, 3-(4-chloro-3′-fluoro-4′-methylbiphenyl-3-yl)-4-hydroxy-8-oxa-1-azaspiro[4.5]dec-3-en-2-one]	1980
O=C1NC2(CCOCC2)C(O)=C1c1cc(-c2ccc(F)cc2)ccc1Cl [1-41, 3-(4-chloro-4′-fluorobiphenyl-3-yl)-4-hydroxy-8-oxa-1-azaspiro[4.5]dec-3-en-2-one]	1140
COCCC1(C)NC(=O)C(c2cc(-c3ccc(Cl)cc3)ccc2C)=C1O (stereo not drawn) [1-47, 3-(4′-chloro-4-methylbiphenyl-3-yl)-4-hydroxy-5-(2-methoxyethyl)-5-methyl-1,5-dihydro-2H-pyrrol-2-one]	3190
Cc1ccc(-c2ccc(Cl)cc2)cc1C1C(=O)N2CCCCN2C1=O [8-3, 2-(4′-chloro-4-methylbiphenyl-3-yl)tetrahydro-1H-pyrazolo[1,2-a]pyridazine-1,3(2H)-dione]	1050
O=C1C(c2cc(-c3ccc(F)c(Cl)c3)ccc2Cl)C(=O)N2CCCCN12 [8-4, 2-(3′,4-dichloro-4′-fluorobiphenyl-3-yl)tetrahydro-1H-pyrazolo[1,2-a]pyridazine-1,3(2H)-dione]	3920
Cc1ccc(-c2ccc(F)cc2F)cc1C1C(=O)N2CCOCCN2C1=O [8-5, 8-(2′,4′-difluoro-4-methylbiphenyl-3-yl)tetrahydro-7H-pyrazolo[1,2-d][1,4,5]oxadiazepine-7,9(8H)-dione]	6940
Cc1ccc(-c2ccc(Cl)cc2)cc1C1C(=O)N2CCOCCN2C1=O [8-6, 8-(4′-chloro-4-methylbiphenyl-3-yl)tetrahydro-7H-pyrazolo[1,2-d][1,4,5]oxadiazepine-7,9(8H)-dione]	1280
Cc1ccc(-c2ccc(Cl)cc2)cc1C1C(=O)N2CC(C)(F)CN2C1=O [8-12, 2-(4′-chloro-4-methylbiphenyl-3-yl)-6-fluoro-6-methyldihydro-1H,5H-pyrazolo[1,2-a]pyrazole-1,3(2H)-dione]	783
CC1(F)CN2C(=O)C(c3cc(-c4ccc(Cl)cc4)ccc3Cl)C(=O)N2C1 [8-13, 2-(4,4′-dichlorobiphenyl-3-yl)-6-fluoro-6-methyldihydro-1H,5H-pyrazolo[1,2-a]pyrazole-1,3(2H)-dione]	1360
Cc1ccc(-c2ccc(Cl)cc2)cc1C1C(=O)N(C)N(C)C1=O [8-14, 4-(4′-chloro-4-methylbiphenyl-3-yl)-1,2-dimethyl-1H-pyrazole-3,5(2H,4H)-dione]	7460
CN1C(=O)C(c2cc(-c3ccc(Cl)cc3)ccc2Cl)C(=O)N1C [8-15, 4-(4,4′-dichlorobiphenyl-3-yl)-1,2-dimethyl-1H-pyrazole-3,5(2H,4H)-dione]	5600
O=C1C(c2cc(-c3ccc(Cl)cc3)ccc2Cl)C(=O)N2C3CCC(C3)N12 (stereo not drawn) [8-17, 2-(4,4′-dichlorobiphenyl-3-yl)tetrahydro-1H-5,8-methanopyrazolo[1,2-a]pyridazine-1,3(2H)-dione]	1450
